How the values were obtained:
Assay type in all cases: cell-based
CIC-1 ion channel = biological target: T1, CIC-1 ion channel (Rattus norvegicus, UniProt P35524); assay: Electrophysiological measurement (Gm, three micro-electrodes) of compound inhibition of CIC-1 in rat soleus muscle fibres; settings: approx. 30° C., four increasing compound concentrations, read-out: EC50 (inhibition of CIC-1 ion channel, reduction of Gm)
T1 construct: CIC-1 channels in native tissue of rat skeletal muscle fibres; from tissue; host or cells: whole soleus muscle of 12-14 week old Wistar rats
T1 sequence (P35524 1-994): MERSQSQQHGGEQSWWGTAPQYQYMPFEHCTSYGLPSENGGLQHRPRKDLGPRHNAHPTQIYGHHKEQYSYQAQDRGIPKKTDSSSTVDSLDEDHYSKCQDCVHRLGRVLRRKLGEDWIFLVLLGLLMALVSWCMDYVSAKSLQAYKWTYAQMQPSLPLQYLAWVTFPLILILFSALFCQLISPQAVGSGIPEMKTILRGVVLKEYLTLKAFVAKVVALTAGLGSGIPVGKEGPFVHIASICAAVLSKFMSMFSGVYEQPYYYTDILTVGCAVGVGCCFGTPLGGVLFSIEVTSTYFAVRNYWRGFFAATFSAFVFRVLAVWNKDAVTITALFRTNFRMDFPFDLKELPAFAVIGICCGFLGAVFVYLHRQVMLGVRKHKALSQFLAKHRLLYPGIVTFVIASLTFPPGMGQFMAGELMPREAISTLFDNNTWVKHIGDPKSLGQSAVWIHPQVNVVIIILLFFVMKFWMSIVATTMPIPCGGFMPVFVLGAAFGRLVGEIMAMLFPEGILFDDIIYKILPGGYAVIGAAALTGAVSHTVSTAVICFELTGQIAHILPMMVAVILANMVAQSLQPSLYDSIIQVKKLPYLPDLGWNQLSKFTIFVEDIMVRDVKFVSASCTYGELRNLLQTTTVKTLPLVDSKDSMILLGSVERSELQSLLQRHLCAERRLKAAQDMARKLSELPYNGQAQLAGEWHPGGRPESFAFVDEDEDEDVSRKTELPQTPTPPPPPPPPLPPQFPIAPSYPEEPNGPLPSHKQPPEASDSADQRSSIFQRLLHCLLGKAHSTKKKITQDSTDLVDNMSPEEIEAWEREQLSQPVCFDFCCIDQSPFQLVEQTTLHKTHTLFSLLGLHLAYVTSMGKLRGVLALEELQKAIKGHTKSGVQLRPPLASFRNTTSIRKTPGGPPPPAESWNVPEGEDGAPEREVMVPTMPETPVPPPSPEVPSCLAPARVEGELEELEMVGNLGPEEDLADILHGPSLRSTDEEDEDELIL
From the text: FIG. 1. […] Please note that the drawing illustrates only the impaled fibre although it is part of an intact muscle that contains many such fibres. All electrodes recorded the membrane potential of the fibre and the two peripheral electrodes were used to inject current (−30 nA, 50 ms). The electrodes were inserted with known inter-electrode distances (X1, X2 and X3). After insertion, current was passed first via the V1 electrode and then via the V3 electrode. The resulting deflections in the membrane voltage were measured by the other electrodes. The steady state deflections in membrane potential were measured and divided by the magnitude of the injected current (−30 nA) to obtain transfer resistances. These were next plotted against inter-electrode distances, and fitted to an exponential function (Panel B), from which Gm could be calculated using linear cable theory. The approach described in panel A and B, was repeated for several muscle fibres in the muscle during exposure at increasing concentrations of compound E-8, with approx. 10 fibres at each concentration. Average Gm at each concentration was plotted as a function of compound concentration in panel C, and fitted to a 4-parameter sigmoidal function from which the EC50 value for the compound was obtained (dashed line)
Apparent CIC-1 affinity was reported by the concentration of compound at which 50% of the compound's full inhibition of CIC-1 was observed (EC50).
CIC-1 Cl^− ion channels generate around 80% of the total membrane conductance (Gm) in resting skeletal muscle fibres of most animals including rat and human (Bretag, A H. Muscle chloride channels. Physiological Reviews, 1987, 67, 618-724). […] CIC-1 inhibition would in such recordings be reflected by a reduction of Gm.
Experimentally, Gm was measured in individual fibres of whole rat soleus muscles using a three micro-electrodes technique described in this example and in full detail elsewhere (Riisager et al., Determination of cable parameters in skeletal muscle fibres during repetitive firing of action potentials. Journal of Physiology, 2014, 592, 4417-4429). Briefly, intact rat soleus muscles were dissected out from 12-14 week old Wistar rats and placed in an experimental chamber that was perfused with a standard Krebs Ringer solution containing 122 mM NaCl, 25 mM NaHCO3, 2.8 mM KCl, 1.2 mM KH2PO4, 1.2 mM MgSO4, 1.3 mM CaCl2, 5.0 mM D-glucose. During experiments, the solution was kept at approx. 30° C. and continuously equilibrated with a mixture of 95% O2 and 5% CO2, pH˜7.4. The experimental chamber was placed in Nikon upright microscope that was used to visualize individual muscle fibres and the three electrodes (glass pipettes filled with 2 M potassium citrate). For Gm measurements, the electrodes were inserted into the same fibre with known inter-electrode distances of 0.35-0.5 mm (V1-V2, X1) and 1.1-1.5 mm (V1-V3, X3) (FIG. 1A). The membrane potential of the impaled muscle fibre was recorded by all electrodes. Two of the electrodes were furthermore used to inject 50 ms current pulses of −30 nA. […] The steady state voltage deflection at each distance was divided by the magnitude of current injected (−30 nA) and the resulting transfer resistances were plotted against inter-electrode distance and the data was fitted to a mono-exponential function from which Gm could be calculated using linear cable theory (FIG. 1B).
To establish a dose response relationship, Gm was first determined in 10 muscle fibres in the absence of compound and then at four increasing compound concentrations with Gm determinations in 5-10 fibres at each concentration. The average Gm values at each concentration were plotted against compound concentration and the data was fitted to sigmoidal function to obtain an EC50 value (FIG. 1C).

[1] = test system: isolated rat soleus muscles; assay: Measurement of force in an in vitro model: isolated rat soleus nerve-muscle preparation with tubocurarine; settings: Rattus norvegicus, 40 min; 50 μM test compound, after 40 mins of compound exposure; 115 nM tubocurarine for 90 mins; read-out: Point increase (%) of initial force that was restored
Protocol: FIG. 2. […] Force traces from a representative muscle stimulated to contract in 1) control condition before addition of neuromuscular blocking agent, 2) the force response to stimulation after 90 minutes incubation with Tubocurarine. […] The traces presented in panel A (1, 2, 3), correspond to the dotted lines in panel B, respectively.
Recovery of force is quantified as the percentage of the force prior to tubocurarine that is recovered by the compound.
The current disclosure relates to compounds that inhibit CIC-1 ion channels and increase muscle excitability and thereby improve muscle function in clinical conditions where muscle activation is failing. Such conditions result in loss of contractile function of skeletal muscle, weakness and excessive fatigue. In this series of experiments the compounds were tested for their ability to restore contractile function of isolated rat muscle when the neuromuscular transmission had been compromised akin to neuromuscular disorders.
Experimentally, soleus muscles from 4-5 week old rats were isolated with the motor nerve remaining attached. The nerve-muscle preparations were mounted in experimental setups that enabled electrical stimulation of the motor nerve. Stimulation of the motor nerve led to activation of the muscle fibres and ensuing force production that was recorded. The nerve-muscle preparations were also in these experiments incubated in the standard Krebs Ringer (see example 5) and the solution was heated to 30° C. and continuously equilibrated with a mixture of 95% O2 and 5% CO2, pH˜7.4.
After mounting the nerve-muscle preparation in the experimental setup, the contractile function of the muscle was initially assessed under the control conditions (FIG. 2A). […] The experimental condition mimics the failing neuromuscular transmission in a range of neuromuscular disorders. After addition of tubocurarine the contractile force declined over the next 90 mins to 10-50% of the control force. 50 μM of the test compound was then added and the contractile force recovered despite the continued presence of tubocurarine. To quantify the ability of the compound to restore force the percentage of the initial force that was restored was determined after 40 mins of compound exposure (FIG. 2B) and the point increase is reported in Table 3.

human CIC-1 channels = biological target: T2, human CIC-1 channels (Homo sapiens, UniProt P35523); assay: Automated patch-clamp on the human isoform of CIC-1 expressed in CHO cells; settings: compound added to the intracellular solution vs control cell patches, positive shift reflects inhibition
T2 construct: host or cells: CHO (Chinese hamster ovary) cells, cryopreserved, used directly after thawing
T2 sequence (P35523 whole entry, canonical isoform): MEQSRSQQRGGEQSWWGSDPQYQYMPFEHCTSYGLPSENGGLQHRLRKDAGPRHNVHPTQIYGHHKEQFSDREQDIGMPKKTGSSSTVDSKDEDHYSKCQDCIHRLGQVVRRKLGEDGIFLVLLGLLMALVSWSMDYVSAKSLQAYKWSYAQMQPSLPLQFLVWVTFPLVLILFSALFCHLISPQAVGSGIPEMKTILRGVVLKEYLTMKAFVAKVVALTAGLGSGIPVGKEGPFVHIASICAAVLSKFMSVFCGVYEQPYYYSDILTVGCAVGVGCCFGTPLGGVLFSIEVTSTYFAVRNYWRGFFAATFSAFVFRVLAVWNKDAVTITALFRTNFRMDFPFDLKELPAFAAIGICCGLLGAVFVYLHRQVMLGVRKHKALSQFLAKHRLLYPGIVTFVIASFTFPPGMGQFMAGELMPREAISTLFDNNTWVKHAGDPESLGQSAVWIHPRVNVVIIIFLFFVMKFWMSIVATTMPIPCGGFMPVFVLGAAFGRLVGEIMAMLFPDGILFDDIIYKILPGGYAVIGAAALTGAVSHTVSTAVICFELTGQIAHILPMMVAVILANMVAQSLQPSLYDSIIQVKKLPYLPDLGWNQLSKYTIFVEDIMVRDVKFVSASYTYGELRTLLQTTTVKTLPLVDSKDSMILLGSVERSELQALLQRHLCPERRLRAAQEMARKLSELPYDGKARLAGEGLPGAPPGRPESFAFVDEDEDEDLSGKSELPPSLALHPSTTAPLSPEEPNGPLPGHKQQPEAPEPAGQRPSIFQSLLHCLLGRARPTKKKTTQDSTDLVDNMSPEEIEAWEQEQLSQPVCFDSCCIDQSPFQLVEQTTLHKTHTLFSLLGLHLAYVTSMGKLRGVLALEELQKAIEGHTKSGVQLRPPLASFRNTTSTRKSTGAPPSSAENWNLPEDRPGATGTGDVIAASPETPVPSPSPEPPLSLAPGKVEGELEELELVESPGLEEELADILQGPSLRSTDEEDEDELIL
Protocol: The investigatory goal of these experiments was to evaluate how compounds affect the open probability and current amplitude of human CIC-1 channels expressed in CHO cells. Experiments were performed using an automated patch clamp system that allowed high throughput testing of whole cell patches together with both intracellular and extracellular addition of compound.
Automated whole cell patch clamp experiments were performed with the Qpatch 16 system (Sophion Bioscience, Ballerup, Denmark) at room temperature. Data acquisition and analysis were performed in the Qassay software (ver. 5.6, Odense).
To obtain tail currents, the membrane potential was stepped to −100 mV after each test voltage for 300 ms and then relaxed to −30 mV for 2 sec between sweeps (FIG. 3). I/V relationships for whole cell instant and steady state current amplitudes were obtained by plotting average current densities at the beginning and at the end of the 300 ms step against the membrane potential (FIG. 4).
In order to determine the relative overall open probability (Po), the instantaneous tail currents were normalized to the maximal tail current obtained following the most positive voltage step and plotted against the test voltage. Plots of normalized tail currents from each whole cell patch were then fitted to a Boltzmann function allowing determination of half activation voltages (V1/2, FIG. 5).
Osmolality adjusted to ˜320 using sucrose. Intracellular solutions contained: 80 mM CsF, 60 mM CsCl, 5/1 mM KOH/EGTA, 10 mM HEPES, 10 mM NaCl, pH adjusted to 7.2 with NaOH (2 M). Osmolality adjusted to ˜320 mOsm using sucrose.
Cells used in patch clamp experiments were Chinese hamster ovary cells (CHO) constitutively expressing human CIC-1 channels. The amino acid sequence encoded by the cDNA used to create this cell line was identical to the translated sequence for GenBank accession number NM_000083.2. Cells were produced by Charles River (Catalogue CT6175, Cleveland Ohio, USA) in a cryopreserved format. Experiments were performed on the cells directly after thawing (3×10^6 cells used in each experiment).
To evaluate the compound effect on CIC-1, when applied directly to the intracellular side of the cell membrane, the half activation voltage, V1/2, was determined from whole cell patches with compound added to the intracellular solution and then compared to V1/2 determined from control cell patches with only vehicle added to the intracellular solution. Additionally, the effect of extracellular added compound was evaluated by determine V1/2 and steady state current amplitudes before and after exchanging the extracellular solution to contain compound.
The difference in half activation voltage of CIC-1 channels, ΔV1/2, was determined as the difference between the cell patches treated intracellularly with compound and control cells patches and is reported in Table 4 below. A positive shift in ΔV1/2 is reflecting CIC-1 channel inhibition by the tested compound. P-values of <0.05 is considered significant.

| SMILES | EC50 (CIC-1 ion channel) | activation at 50 µM [1] | ΔV1/2 (difference in half activation voltage of CIC-1 channels) (human CIC-1 channels) |
| --- | --- | --- | --- |
| C[C@H](Oc1ccc(Cl)cc1)C(=O)NOCC1CCC1 [Compound C-75, (2S)-2-(4-chlorophenoxy)-N-(cyclobutylmethoxy)propanamide] | 2 µM | 36% |  |
| CC[C@H](Oc1ccc(Br)cc1)c1nn[nH]n1 [Compound E-5, 5-[(1S)-1-(4-bromophenoxy)propyl]-2H-1,2,3,4-tetrazole] |  |  | 13.9 mV |
| CONC(=O)[C@H](C)Oc1ccc(Cl)cc1 [Compound C-85, (2S)-2-(4-chlorophenoxy)-N-methoxypropanamide] | 10.1 µM | 45% |  |
| CC(C)[C@H](Oc1ccc(Br)cc1)C(=O)NC#N [Compound B-5, (2S)-2-(4-bromophenoxy)-N-cyano-3-methylbutanamide] | 19.6 µM |  | 26.6 mV |
| CC(=O)N1CCC(ONC(=O)[C@H](C)Oc2ccc(Br)cc2)C1 (stereo partly shown) [Compound C-8] |  | 45% | 10.3 mV |
| C[C@H](Oc1ccc(Cl)cc1)C(=O)NOCC1CC1 [Compound C-74, (2S)-2-(4-chlorophenoxy)-N-(cyclopropylmethoxy)propanamide] | 3.4 µM | 22% |  |
| CC(=O)NCCON(C(C)=O)C(=O)[C@H](C)Oc1ccc(Cl)cc1 [Compound C-22, (2S)-N-acetyl-2-(4-chlorophenoxy)-N-(2-acetamidoethoxy)propanamide] | 7.8 µM | 22% |  |
| CONC(=O)[C@H](C)Oc1ccc(Br)cc1F [Compound C-64, (2S)-2-(4-bromo-2-fluorophenoxy)-N-methoxypropanamide] | 3.1 µM | 24% |  |
| C[C@H](Oc1ccc(Cl)cc1)C(=O)NC#N [Compound B-4, (2S)-2-(4-chlorophenoxy)-N-cyanopropanamide] |  |  | 21.2 mV |
| C[C@H](Oc1ccc(Br)cc1Br)C(=O)NC#N [Compound B-2, (2S)-N-cyano-2-(2,4-dibromophenoxy)propanamide] |  |  | 6.2 mV |
| COC(=O)CONC(=O)[C@H](C)Oc1ccc(Cl)cc1 [Compound C-78, methyl 2-{[(2S)-2-(4-chlorophenoxy)propanamido]oxy}acetate] | 3.1 µM | 41% |  |

— US20220274938A1, “5-[(1S)-1-(4-BROMOPHENOXY)ETHYL]-2H-TETRAZOLE DERIVATIVES AND RELATED COMPOUNDS AS CLC-1 ION CHANNEL INHIBITORS FOR TREATING NEUROMUSCULAR DISORDERS” (NMD PHARMA A/S, priority 2019, published 2022)
